From patent US20120264735A1 (priority 2009, published 2012)

target: T1, c-Met kinase (recombinant c-Met) (Homo sapiens, UniProt P08581); test: In vitro kinase assay I (homogeneous time-resolved fluorescence tyrosine kinase assay); assay type: biochemical
T1 construct: 0.27 nM recombinant c-Met
Summary of the method: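 Biotinylated peptide (0.5 μM) phosphorylated by 0.2 nM recombinant c-Met with 50 μM MgATP, 60 min at room temperature, pH 7.4, 5% DMSO. EDTA stop; HTRF read with Eu-anti-phosphotyrosine antibody and streptavidin-APC. IC50 from 4-parameter logistic fit.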

T1 sequence (P08581 25-1390): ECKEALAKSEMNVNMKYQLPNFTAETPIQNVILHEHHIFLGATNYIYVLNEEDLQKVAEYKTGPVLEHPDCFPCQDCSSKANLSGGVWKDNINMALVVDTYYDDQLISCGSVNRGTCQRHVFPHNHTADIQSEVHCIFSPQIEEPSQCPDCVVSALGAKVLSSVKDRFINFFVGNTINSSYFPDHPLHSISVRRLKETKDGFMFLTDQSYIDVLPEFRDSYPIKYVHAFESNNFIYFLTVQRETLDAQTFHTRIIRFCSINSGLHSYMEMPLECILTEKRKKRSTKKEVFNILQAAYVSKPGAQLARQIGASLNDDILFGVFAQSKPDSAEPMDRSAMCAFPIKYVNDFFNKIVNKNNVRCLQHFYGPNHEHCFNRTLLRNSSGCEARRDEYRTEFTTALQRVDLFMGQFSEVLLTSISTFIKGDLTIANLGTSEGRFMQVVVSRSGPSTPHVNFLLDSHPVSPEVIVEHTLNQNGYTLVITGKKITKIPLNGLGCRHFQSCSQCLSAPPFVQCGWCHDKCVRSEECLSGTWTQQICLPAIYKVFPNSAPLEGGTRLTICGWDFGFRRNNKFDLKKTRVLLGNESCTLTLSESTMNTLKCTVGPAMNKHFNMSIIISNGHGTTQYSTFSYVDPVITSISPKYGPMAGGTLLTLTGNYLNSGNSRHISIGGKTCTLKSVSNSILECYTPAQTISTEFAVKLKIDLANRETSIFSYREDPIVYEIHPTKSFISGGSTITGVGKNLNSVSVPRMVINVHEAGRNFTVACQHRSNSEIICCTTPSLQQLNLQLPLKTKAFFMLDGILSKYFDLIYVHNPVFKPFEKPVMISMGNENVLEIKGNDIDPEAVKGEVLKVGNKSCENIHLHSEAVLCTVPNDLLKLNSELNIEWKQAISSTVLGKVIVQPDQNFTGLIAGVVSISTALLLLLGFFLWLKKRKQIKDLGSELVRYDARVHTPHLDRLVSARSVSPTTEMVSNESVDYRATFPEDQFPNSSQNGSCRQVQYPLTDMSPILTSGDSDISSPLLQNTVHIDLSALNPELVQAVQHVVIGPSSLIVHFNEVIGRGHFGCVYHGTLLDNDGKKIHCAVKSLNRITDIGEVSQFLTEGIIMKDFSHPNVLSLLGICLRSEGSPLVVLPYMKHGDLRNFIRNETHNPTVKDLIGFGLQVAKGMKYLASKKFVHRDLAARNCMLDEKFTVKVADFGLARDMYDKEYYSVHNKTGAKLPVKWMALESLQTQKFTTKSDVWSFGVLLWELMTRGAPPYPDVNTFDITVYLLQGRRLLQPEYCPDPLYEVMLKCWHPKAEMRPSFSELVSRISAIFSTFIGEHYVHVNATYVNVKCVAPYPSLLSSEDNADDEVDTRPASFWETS

| IC50 [nM] | Structure (SMILES) |
| --- | --- |
| < 100 | Cn1cc(-n2ccc(=O)c(Cc3cccc(-c4ncc(-c5ccncc5)cn4)c3)n2)cn1 [Example 409, 1-(1-Methyl-1H-pyrazol-4-yl)-3-{3-[5-(pyridin-4-yl)pyrimidin-2-yl]benzyl}pyridazin-4(1H)-one] |
| < 100 | Cn1cc(-c2cnc(-c3cccc(Cc4nn(-c5ccc(F)c(F)c5)ccc4=O)c3)nc2)cn1 [Example 156, 1-(3,4-difluorophenyl)-3-{3-[5-(1-methyl-1H-pyrazol-4-yl)pyrimidin-2-yl]benzyl}pyridazin-4(1H)-one] |
| < 100 | CNC(=O)CCn1cc(-n2ccc(=O)c(Cc3cccc(NC(=O)OCC(C)C)c3)n2)cn1 [Example 702, 2-methylpropyl {3-[(1-{1-[3-(methylamino)-3-oxopropyl]-1H-pyrazol-4-yl}-4-oxo-1,4-dihydropyridazin-3-yl)methyl]phenyl} carbamate] |
| < 100 | O=C(Nc1cccc(Cc2nn(-c3cc(F)c(F)c(F)c3)ccc2=O)c1)OCCCN1CCCC1=O [Example 551, 3-(2-oxopyrrolidin-1-yl)propyl (3-{[4-oxo-1-(3,4,5-trifluorophenyl)-1,4-dihydropyridazin-3-yl]methyl}phenyl)carbamate] |
| < 100 | CCOC(=O)Nc1cccc(Cc2nn(-c3cnn(C4CCOC4)c3)ccc2=O)c1 (racemic) [Example 97, rac-ethyl [3-({4-oxo-1-[1-(tetrahydrofuran-3-yl)-1H-pyrazol-4-yl]-1,4-dihydropyridazin-3-yl}methyl)phenyl]carbamate] |
| 100 to 1000 | Cn1cc(-n2ccc(=O)c(Cc3cccc(-c4ncn(CC5(C)COC5)n4)c3)n2)cn1 [Example 713, 3-(3-{1-[(3-methyloxetan-3-yl)methyl]-1H-1,2,4-triazol-3-yl}benzyl)-1-(1-methyl-1H-pyrazol-4-yl)pyridazin 4(1H)-one] |
| 100 to 1000 | COCCOc1ccnc(-c2cccc(C(C)c3nn(-c4cnn(C)c4)ccc3=O)c2)n1 (racemic) [Example 679, rac-3-(1-{3-[4-(2-methoxyethoxy)pyrimidin-2-yl]phenyl}ethyl)-1-(1-methyl-1H-pyrazol-4-yl)pyridazin-4(1H)-one] |
| < 100 | CCn1cc(-n2ccc(=O)c(Cc3cccc(-c4ncc(OC5COC5)cn4)c3)n2)cn1 [Example 165, 1-(1-ethyl-1H-pyrazol-4-yl)-3-{3-[5-(oxetan-3-yloxy)pyrimidin-2-yl]benzyl}pyridazin-4(1H)-one] |
| < 100 | COCCOCCOC(=O)Nc1cccc(Cc2nn(-c3ccc(F)c(F)c3)ccc2=O)c1 [Example 602, 2-(2-methoxyethoxy)ethyl (3-{[1-(3,4-difluorophenyl)-4-oxo-1,4-dihydropyridazin-3-yl]methyl}phenyl)carbamate] |
| < 100 | COCCCOC(=O)Nc1cccc(Cc2nn(-c3cnn(C)c3)ccc2=O)c1 [Example 575, 3-methoxypropyl (3-{[1-(1-methyl-1H-pyrazol-4-yl)-4-oxo-1,4-dihydropyridazin-3-yl]methyl}phenyl)carbamate] |
| < 100 | O=c1ccn(-c2cc(F)cc(F)c2)nc1Cc1cccc(-c2ncc(OCC3CCOCC3)cn2)c1 [Example 331, 1-(3,5-difluorophenyl)-3-{3-[5-(tetrahydro-2H-pyran-4-ylmethoxy)pyrimidin-2-yl]benzyl}pyridazin-4(1H)-one] |
| 100 to 1000 | Cn1cc(-n2ccc(=O)c(Cc3ccc4cnccc4c3)n2)cn1 [Example 74, 3-(isoquinolin-6-ylmethyl)-1-(1-methyl-1H-pyrazol-4-yl)pyridazin-4(1H)-one] |
| 100 to 1000 | CCC(=O)Nc1cccc(Cc2nn(-c3cnn(C)c3)ccc2=O)c1 [Example 635, N-(3-{[1-(1-methyl-1H-pyrazol-4-yl)-4-oxo-1,4-dihydropyridazin-3-yl]methyl}phenyl)propanamide] |
| < 100 | O=C(Nc1cccc(Cc2nn(-c3cc(F)c(F)c(F)c3)ccc2=O)c1)OCC1CCOCC1 [Example 558, tetrahydro-2H-pyran-4-ylmethyl (3-{[4-oxo-1-(3,4,5-trifluorophenyl)-1,4-dihydropyridazin-3-yl]methyl}phenyl)carbamate] |
| < 100 | CC(C)COC(=O)Nc1cccc(Cc2nn(-c3cnn(CCCC(=O)N4CCCCC4)c3)ccc2=O)c1 [Example 699, 2-methylpropyl [3-({4-oxo-1-[1-(4-oxo-4-piperidin-1-ylbutyl)-1H-pyrazol-4-yl]-1,4-dihydropyridazin-3-yl}methyl)phenyl] carbamate] |
| < 100 | CCCOC(=O)Nc1cccc(Cc2nn(-c3cccnc3)ccc2=O)c1 [Example 28, propyl {3-[(4-oxo-1-pyridin-3-yl-1,4-dihydropyridazin-3-yl)methyl]phenyl}carbamate] |
| 100 to 1000 | Cc1noc(C)c1-c1cnc(-c2cccc(Cc3nn(-c4cnn(C)c4)ccc3=O)c2)nc1 [Example 424, 3-{3-[5-(3,5-dimethylisoxa-zol-4-yl)pyrimidin-2-yl]benzyl}-1-(1-methyl-1H-pyrazol-4-yl)pyridazin-4(1H)-one] |

| IC50 [nM] | Structure (SMILES) |
| --- | --- |
| < 100 | Cn1cc(-n2ccc(=O)c(Cc3cccc(NC(=O)OCC4(F)CCOCC4)c3)n2)cn1 [Example 613, (4-fluorotetrahydro-2H-pyran-4-yl)methyl (3-{[1-(1-methyl-1H-pyrazol-4-yl)-4-oxo-1,4-dihydropyridazin-3-yl]methyl}phenyl)carbamate] |
| < 100 | CC(C)COC(=O)Nc1cccc(Cc2nn(-c3cnn(CCC(=O)N4CCOCC4)c3)ccc2=O)c1 [Example 703, 2-methylpropyl [3-({1-[1-(3-morpholin-4-yl-3-oxopropyl-1H-pyrazol-4-yl]-4-oxo-1,4-dihydropyridazin-3-yl}methyl)phenyl] carbamate] |
| < 100 | N#Cc1cncc(-n2ccc(=O)c(Cc3cccc(NC(=O)OCC4CCOC4)c3)n2)c1 (racemic) [Example 130, rac-tetrahydrofuran-3-ylmethyl (3-{[1-(5-cyanopyridin-3-yl)-4-oxo-1,4-dihydropyridazin-3-yl]methyl}phenyl)carbamate] |
| < 100 | O=C(Nc1cccc(Cc2nn(-c3cc(F)cc(F)c3)ccc2=O)c1)OCCN1CCOCC1=O [Example 605, 2-(3-oxomorpholin-4-yl)ethyl (3-{[1-(3,5-difluorophenyl)-4-oxo-1,4-dihydropyridazin-3-yl]methyl}phenyl)carbamate] |
| 100 to 1000 | CCOC(=O)Nc1cccc(C(F)c2nn(-c3ccccc3)ccc2=O)c1 (racemic) [Example 640, rac-Ethyl-{3-[fluoro(4-oxo-1-phenyl-1,4-dihydropyridazin-3-yl)methyl]phenyl}carbamate] |
| < 100 | Cn1cc(-n2ccc(=O)c(Cc3cccc(NC(=O)NCc4ccccc4)c3)n2)cn1 [Example 490, 1-benzyl-3-(3-{[1-(1-methyl-1H-pyrazol-4-yl)-4-oxo-1,4-dihydropyridazin-3-yl]methyl}phenyl)urea] |
| < 100 | O=C(Nc1cccc(Cc2nn(-c3cc(F)c(F)c(F)c3)ccc2=O)c1)OCCn1cncn1 [Example 552, 2-(1H-1,2,4-triazol-1-yl)ethyl (3-{[4-oxo-1-(3,4,5-trifluorophenyl)-1,4-dihydropyridazin-3-yl]methyl}phenyl)carbamate] |
| < 100 | CCn1cc(-n2ccc(=O)c(C(C)c3cccc(-c4ncc(OC5COC5)cn4)c3)n2)cn1 (single isomer, unassigned) [Example 214, 1-(1-ethyl-1H-pyrazol-4-yl)-3-((1R or S)-1-{3-[5-(oxetan-3-yloxy)pyrimidin-2-yl]phenyl}ethyl)pyridazin-4(1H)-one] |
| < 100 | Cn1cc(-n2ccc(=O)c(Cc3cccc(-c4ncc(CN5CCC(N)CC5)cn4)c3)n2)cn1 [compound 434, 3-(3-{5-[(4-aminopiperidin-1-yl)methyl]pyrimidin-2-yl}benzyl)-1-(1-methyl-1H-pyrazol-4-yl)pyridazin-4(1H)-one] |
| 100 to 1000 | CCn1cc(-n2ccc(=O)c(C(C)c3cccc(-c4ncc(OC5COC5)cn4)c3)n2)cn1 (single isomer, unassigned) [Example 213, 1-(1-ethyl-1H-pyrazol-4-yl)-3-((1S or R)-1-{3-[5-(oxetan-3-yloxy)pyrimidin-2-yl]phenyl}ethyl)pyridazin-4(1H)-one] |
| < 100 | N#Cc1cccc(-n2ccc(=O)c(Cc3cccc(NC(=O)OCC4CCOCC4)c3)n2)c1 [Example 579, tetrahydro-2H-pyran-4-ylmethyl (3-{[1-(3-cyanophenyl)-4-oxo-1,4-dihydropyridazin-3-yl]methyl}phenyl)carbamate] |
| < 100 | CN(C)Cc1cnc(-c2cccc(Cc3nn(-c4cnn(C)c4)ccc3=O)c2)nc1 [Example 430, 3-(3-{5-[(dimethylamino)methyl]pyrimidin-2-yl}benzyl)-1-(1-methyl-1H-pyrazol-4-yl)pyridazin-4(1H)-one] |
| < 100 | CCn1cc(-n2ccc(=O)c(Cc3cccc(NC(=O)OCCOC)c3)n2)cn1 [Example 70, 2-methoxyethyl (3-{[1-(1-ethyl-1H-pyrazol-4-yl)-4-oxo-1,4-dihydropyridazin-3-yl]methyl}phenyl)carbamate] |
| < 100 | CC(c1cccc(-c2nccc(C(F)F)n2)c1)c1nn(-c2cnn(C)c2)ccc1=O (single isomer, unassigned) [Example 690, 3-[(1R or S)-1-{3-[4-(Difluoromethyl)pyrimidin-2-yl]phenyl}ethyl]-1-(1-methyl-1H-pyrazol-4-yl)pyridazin-4(1H)-one] |
| < 100 | CCC(COC(=O)Nc1cccc(Cc2nn(-c3cccc(C#N)c3)ccc2=O)c1)OC (racemic) [Example 581, rac-2-methoxybutyl (3-{[1-(3-cyanophenyl)-4-oxo-1,4-dihydropyridazin-3-yl]methyl}phenyl)carbamate] |
| 100 to 1000 | CC(C)COC(=O)Nc1cccc(Cc2nn(-c3ccc(-c4cnn(C)c4)cc3)ccc2=O)c1 [Example 732, 2-methylpropyl [3-({1-[4-(1-methyl-1H-pyrazol-4-yl)phenyl]-4-oxo-1,4-dihydropyridazin-3-yl}methyl)phenyl] carbamate] |
